Paper PMC9322052, “Synthesis and Biological Activity Screening of Newly Synthesized Trimethoxyphenyl-Based Analogues as Potential Anticancer Agents” (Molecules, 2022)

How the values were obtained:
[1] = tested on: hepatocellular carcinoma HepG2 cell line; test: MTT cytotoxicity assay, HepG2; type: cell-based, human; conditions: 24 h treatment, mean ± SE
Description: All the newly synthesized analogs were evaluated for their in vitro cytotoxicity against the hepatocellular carcinoma HepG2 cell line. Podo was utilized as a reference control in the current study. […] The N-phenyl triazinone derivative 9 was further investigated for its cytotoxic effects against normal liver cell line HL-7702.
MTT colorimetric assay was carried out to investigate the impact of the newly synthesized compounds 2–11 on hepatocellular carcinoma (HepG2) and normal liver cell line (HL-7702) cell lines. See Section 3.3.1 in Supplementary Material.
3.3.1. Cytotoxic activity evaluation
To measure the cytotoxic activity of the synthesized derivatives 2a-11 in hepatocel-lular carcinoma (HepG2) cell line (ATCC Cat No. HB-8065) as well as normal human liver cell line HL-7702 (ATCC Cat. No. 77402), cell viability assay was assessed using MTT assay method. Cells at density of 1 x 104 were seeded in a 96-well plate at 37 °C for 24 h under 5% CO2. After incubation, the cells were treated with different concentrations of the test compounds 2a-11 and incubated for 24 h, then 20 μl of MTT solution at 5 mg/mL was applied and incubated for 4 h at 37 °C. Dimethyl sulphoxide (DMSO) in volume of 100 µl was added to each well to dissolve the purple formazan that had formed. The color inten-sity of the formazan product, which represents the growth condition of the cells, is quan-tified by using an ELISA plate reader (EXL 800, USA) at 570 nm absorbance. The experi-mental conditions were carried out with at least three replicates, and the experiments were repeated at least three times.
3.3.2. Tubulin inhibitions Assay
Compounds 9, 10 and 11 were evaluated for their tubulin inhibitory activity levels according to the manufacturer’s instructions using # abcam Human Beta-tubulin simplestep […]
3.3.3. Cell cycle analysis of compound 9
Cell cycle analysis in HepG2 cells was investigated using fluorescent Annexin V-FITC/ PI detection kit (BioVision EZCellTM Cell Cycle Analysis Kit Catalog #K920) by flow cytometry assay. HepG2 cells at a density of 2 × 10^5 per well were harvested and washed twice in PBS. After that, the cells were incubated at 37 °C and 5% CO2. […] Afterward, medium was stained with DNA flu-orochrome PI for 15 min at 37 °C. The samples were immediately analyzed using Facs Calibur flow cytometer (Becton and Dickinson, Heidelberg, Germany).
3.3.4. Apoptosis assay for compound 9
Apoptosis in HepG2 cells was investigated using fluorescent Annexin V-FITC/ PI de-tection kit (BioVision Annexin V-FITC Apoptosis Detection Kit, Catalog #: K101) by flow cy-tometry assay. HepG2 cells at a density of 2 × 10^5 per well were treated with compound 9 at its IC50 (μM) for 48 h, then the cells were harvested and stained with Annexin V-FITC/ PI dye for 15 min in the dark at 37 °C. The samples were immediately analyzed using FACS Calibur flow cytometer (Becton and Dickinson, Heidelberg, Germany).
3.3.5. Measurement of mitochondrial membrane potential (MMP) for compound 9 MMP was measured by FACS analysis using abcam ab113852TMRE Mitochondrial Membrane Potential Assay Kit with DiOC2(3) staining using MitoProbe™ DiOC2(3) Assay Kit for Flow Cytometry (M34150). After treatment with compound 9 at its IC50 concentra-tion, cells were stained with DiOC2(3) dye for 30 min in the incubator, then harvested and washed with PBS. DiOC2(3)-stained cells were represented with Annexin binding buffer and incubated at 37 °C for 15 min. The samples were immediately analyzed using cell […]
3.3.6. Effect on p53, Bax and Bcl-2 p53, Bax and Bcl2 enzyme activities in HepG2 cells were detected in the presence of com-pound 9 at its IC50 concentration (μM). The levels of the tumor suppressor gene p53, apoptotic markers Bax as well as the anti-apoptotic marker Bcl-2 were assessed using p53 ELISA kit, Human Bax ELISA kit and Bcl-2 Elisa kit. […]

β-tubulin = test: Tubulin polymerization inhibition (beta-tubulin ELISA in HepG2 cells); type: cell-based, human; conditions: HepG2 cells, each compound at its IC50 concentration (9 1.38, 10 2.52, 11 3.21, podo 2.08 μM), ELISA
Description: The selected candidates were tested at a concentration equal to their IC50 concentration dose value. […] See Section 3.3.2 in Supplementary Material. […] page 18: 3.3. Biological studies 3.3.1. Cytotoxic activity evaluation To measure the cytotoxic activity of the synthesized derivatives 2a-11 in hepatocel- lular carcinoma (HepG2) cell line (ATCC Cat No. HB-8065) as well as normal human liver cell line HL-7702 (ATCC Cat. No. 77402), cell viability assay was assessed using MTT assay method. Cells at density of 1 x 104 were seeded in a 96-well plate at 37 °C for 24 h under 5% CO2. After incubation, the cells were treated with different concentrations of the test compounds 2a-11 and incubated for 24 h, then 20 μl of MTT solution at 5 mg/mL was […] Dimethyl sulphoxide (DMSO) in volume of 100 μl was added to each well to dissolve the purple formazan that had formed. The color […] of the formazan product, which represents the growth condition of the cells, is quan- […] by using an ELISA plate reader (EXL 800, USA) at 570 nm absorbance. The experi- mental conditions were carried out with at least three replicates, and the experiments were repeated at least three times. 3.3.2. Tubulin inhibitions Assay […] according to the manufacturer's instructions using # abcam Human Beta-tubulin […] ELISA Kit ab245722. 3.3.3. Cell cycle analysis of compound 9 Cell cycle analysis in HepG2 cells was investigated using fluorescent Annexin V- FITC/ PI detection kit (BioVision EZCellTM Cell Cycle Analysis Kit Catalog #K920) by flow cytometry assay. […] twice in PBS. After that, the cells were incubated at 37 °C and 5% CO2. […] Apoptosis assay for compound 9 Apoptosis in HepG2 cells was investigated using fluorescent Annexin V-FITC/ PI de- tection kit (BioVision Annexin V-FITC Apoptosis Detection Kit, Catalog #: K101) by flow cy- tometry assay. […] The samples were immediately analyzed using FACS Calibur flow cytometer (Becton and Dickinson, Heidelberg, Germany). 3.3.5. Measurement of mitochondrial membrane potential (MMP) for compound 9 MMP was measured by FACS analysis using abcam ab113852TMRE Mitochondrial Membrane Potential Assay Kit with DiOC2(3) staining using MitoProbeTM DiOC2(3) Assay Kit for Flow Cytometry (M34150). After treatment with compound 9 at its IC50 concentra- tion, cells were stained with DiOC2(3) dye for 30 min in the incubator, then harvested and washed with PBS. […] The samples were immediately analyzed using cell Quest software. […] Effect on p53, Bax and Bcl-2 p53, Bax and Bcl2 enzyme activities in HepG2 cells were detected in the presence of com- pound 9 at its IC50 concentration (μM). The levels of the tumor suppressor gene p53, apoptotic markers Bax as well as the anti-apoptotic marker Bcl-2 were assessed using p53 ELISA kit, Human Bax ELISA kit and Bcl-2 Elisa kit. […]

Structure (SMILES)	melting point	IC50 ([1]; Homo sapiens, HepG2, 24 h)	IC50 [1]	β-tubulin polymerization inhibition percentage (β-tubulin)
COc1ccc(C(=O)N/C(=C\c2cc(OC)c(OC)c(OC)c2)C(=O)Nc2cccc(C)c2)cc1OC [Compound 4a, (Z)-3,4-Dimethoxy-N-(3-oxo-3-(M-tolylamino)-1-(3,4,5-Trimethoxyphenyl)prop-1-en-2-yl)benzamide]	248 to 250 °C	45.5 ± 2.89 µM		
COc1ccc(C(=O)N/C(=C\c2cc(OC)c(OC)c(OC)c2)C(=O)NNC(=O)c2ccncc2)cc1OC [Compound 6, (Z)-N-(3-(2-Isonicotinoylhydrazinyl)-3-oxo-1-(3,4,5-Trimethoxyphenyl)prop-1-en-2-yl)-3,4-Dimethoxybenzamide]	248 to 250 °C	< 10 µM	8.74 ± 0.57 µM	
COc1ccc(C(=O)N/C(=C\c2cc(OC)c(OC)c(OC)c2)C(=O)NNc2ccccc2)cc1OC [Compound 5, (Z)-3,4-Dimethoxy-N-(3-oxo-3-(2-Phenylhydrazinyl)-1-(3,4,5-Trimethoxyphenyl)prop-1-en-2-yl)benzamide]		< 10 µM	9.24 ± 0.52 µM	
COc1ccc(C(=O)N/C(=C\c2cc(OC)c(OC)c(OC)c2)C(=O)Nc2ccc(O)cc2)cc1OC [Compound 4b, (Z)-N-(3-(4-Hydroxyphenylamino)-3-oxo-1-(3,4,5-Trimethoxyphenyl)prop-1-en-2-yl)-3,4-Dimethoxybenzamide]	248 to 250 °C	< 20 µM	17.7 ± 1.1 µM	
COc1ccc(C2=N/C(=C\c3cc(OC)c(OC)c(OC)c3)C(=O)N2c2ccc(O)cc2)cc1OC [Compound 7a, (Z)-2-(3,4-Dimethoxyphenyl)-1-(4-Hydroxyphenyl)-4-(3,4,5-Trimethoxybenzylidene)-1H-Imidazol-5(4H)-one]	248 to 250 °C			
COc1ccc(NC(=O)/C(=C/c2cc(OC)c(OC)c(OC)c2)NC(=O)c2ccc(OC)c(OC)c2)cc1 [Compound 4c, (Z)-3,4-Dimethoxy-N-(3-(4-Methoxyphenylamino)-3-oxo-1-(3,4,5-Trimethoxyphenyl)prop-1-en-2-yl)benzamide]	248 to 250 °C	23.7 ± 1.37 µM		
COc1ccc(C(=O)N/C(=C\c2cc(OC)c(OC)c(OC)c2)C(=O)NC(C)C(=O)O)cc1OC (stereo not drawn) [Compound 3b, (Z)-2-(2-(3,4-Dimethoxybenzamido)-3-(3,4,5-Trimethoxyphenyl)acrylamido)propanoic Acid]	248 to 250 °C	< 20 µM	19.4 ± 1.43 µM	
COc1ccc(C(=O)N/C(=C\c2cc(OC)c(OC)c(OC)c2)C(=O)NNc2ccccc2)cc1OC (hydrate or solvate) [Compound 5, (Z)-3,4-Dimethoxy-N-(3-oxo-3-(2-Phenylhydrazinyl)-1-(3,4,5-Trimethoxyphenyl)prop-1-en-2-yl)benzamide]	248 to 250 °C			
COC(=O)/C(=C/c1cc(OC)c(OC)c(OC)c1)NC(=O)c1ccc(OC)c(OC)c1 [Compound 2a, (Z)-Methyl 2-(3,4-Dimethoxybenzamido)-3-(3,4,5-Trimethoxyphenyl)acrylate]	248 to 250 °C	< 20 µM	14.4 ± 0.82 µM	
COc1ccc(C2=N/C(=C\c3cc(OC)c(OC)c(OC)c3)C(=O)NN2c2nc(-c3ccccc3)cs2)cc1OC [Compound 11, (Z)-3-(3,4-Dimethoxyphenyl)-2-(4-Phenylthiazol-2-yl)-5-(3,4,5-Trimethoxybenzylidene)-1,2-Dihydro-1,2,4-Triazin-6(5H)-one]	248 to 250 °C	3.21 ± 0.22 µM		69.95%
COc1ccc(C(=O)N/C(=C\c2cc(OC)c(OC)c(OC)c2)C(=O)NCC(=O)O)cc1OC [Compound 3a, (Z)-2-(2-(3,4-Dimethoxybenzamido)-3-(3,4,5-Trimethoxyphenyl)acrylamido)acetic Acid]	248 to 250 °C	< 10 µM	8.13 ± 0.54 µM	
CCOC(=O)/C(=C/c1cc(OC)c(OC)c(OC)c1)NC(=O)c1ccc(OC)c(OC)c1 [Compound 2b, (Z)-Ethyl 2-(3,4-Dimethoxybenzamido)-3-(3,4,5-Trimethoxyphenyl)acrylate]	248 to 250 °C	< 20 µM	11.1 ± 0.77 µM	
COc1ccc(C2=N/C(=C\c3cc(OC)c(OC)c(OC)c3)C(=O)NN2C(=O)c2ccncc2)cc1OC [Compound 10, (Z)-3-(3,4-Dimethoxyphenyl)-2-Isonicotinoyl-5-(3,4,5-Trimethoxybenzylidene)-1,2-Dihydro-1,2,4-Triazin-6(5H)-one]	248 to 250 °C	2.52 ± 0.24 µM		80.51%
COc1ccc(C2=N/C(=C\c3cc(OC)c(OC)c(OC)c3)C(=O)NN2C(N)=S)cc1OC [Compound 8, (Z)-3-(3,4-Dimethoxyphenyl)-6-oxo-5-(3,4,5-Trimethoxybenzylidene)-5,6-Dihydro-1,2,4-Triazine-2(1H)-Carbothioamide]	248 to 250 °C			
COc1ccc(N2C(=O)/C(=C/c3cc(OC)c(OC)c(OC)c3)N=C2c2ccc(OC)c(OC)c2)cc1 [Compound 7b, (Z)-2-(3,4-Dimethoxyphenyl)-1-(4-Methoxyphenyl)-4-(3,4,5-Trimethoxybenzylidene)-1H-Imidazol-5(4H)-one]	248 to 250 °C	< 10 µM	6.45 ± 0.24 µM	
